Measured values as given in patent publication US20060211606A1, “Peptides” (priority 2005, published 2006).
*1 amine or outer side, *2 acyl side, *3 side chain or, on linkers, in order; H or OH if unused. [ ]: non-standard residue; d: D form. PEG (Jeffamine) = not defined here; Suc = O=C(CCC(=O)[*:2])[*:1]

Experiments:
C2C12 muscle cells = test: C2C12 proliferation, Alamar Blue assay; type: cell-based, mouse; details: 2000 cells per well; 2, 5, 50 and 100 ng/ml; medium with IGF-I 2 ng per ml; 36 hours
Experimental: (A) DMGF and CMGF Peptides: C2C12 Cells were provided at 2000 cell/well, in a medium containing DMEM (1000 mg/L glucose), plus BSA(100 ug/ml), plus IGF-I (2 ng per ml) and incubated for 36 hours. Cell proliferation was then assessed using an Alamar Blue assay. […] Y-axis values are fluorescence (wavelength of excitation 535 nm, measurement at 590 nm; mean plus standard error) in an Alamar Blue assay.
The 8 amino acid peptides described in 1.3.1 above and referred to in FIG. 8A as DMGF and CMGF were tested for the ability to induce proliferation of C2C12 muscle cells at a density of 2000 cells per well in a medium containing DMEM (1000 mg/L glucose), BSA (10 ug/ml) and IGF-I (2 ng per ml). Concentrations of 2, 5, 50 and 100 ng/ml of DMGF and CMGF were tested (See the left-hand and middle sets of results in FIG. 8), along with 2, 5, 50 and 100 ng/ml IGF-I alone (See the right-hand set of results in FIG. 8). After 36 hours incubation, an Alamar Blue assay was used to assess the level of cell proliferation achieved. A control containing only the medium was also provided.

CA1 hippocampal neurones = test: Gerbil model of brain ischemia, intact CA1 hippocampal neurones; type: in vivo, Mongolian gerbils; details: 25 μg injection, 7 days after the insult
Experimental: Other experiments were carried out using a Gerbil model of brain ischemia.
In the gerbil brain, bilateral ligation of the common carotid arteries invariably produces specific hippocampal lesions: in the CA1 region, pyramidal neurones start to die 3-4 days after ischemia.
Male Mongolian gerbils weighing 50-60 g were used. The ischemic insult was performed by 5 min. ligation of the common carotid arteries under halotane in N2O:O2 (70:30) anaesthesia in strictly controlled normothermic conditions as previously described (Domańiska-Janik et al., 2004). The cerebral blood flow was continuously monitored by laser Doppler flowmetry (Muro, Inc.). […] Sham operated animals were injected with the same dose of the peptide.
The animals were allowed a recovery period of one week, then were perfused with ice-cold 4% paraformaldehyde in PBS under pentobarbital anaesthesia. The histological evaluation was performed on paraffin-embedded and fixed, 10 mm-thick sections stained by hematoxylline/eosine. The extent of cell damage in the CA1 hippocampal region was quantified, under a Zeiss Axioscop 2, as the mean number of the persisted, intact neurons in the coronal sections. At least three defined 300 μm fields of the CA1 region were captured using a MC 10095 camera (Carl Zeiss Jena GmbH) and counted in a computer-assisted image analysis system (KS 300, Carl Zeiss Jena GmbH).

infarcted ovine heart = test: Ovine myocardial infarction, intracoronary injection, ejection fraction by echocardiography; type: in vivo; details: ovine MI; intracoronary injection 15 minutes after MI; ejection fraction day 6 vs day 1
Excerpt: A myocardial infarction (MI) was induced in ovine hearts by catheterising a marginal branch of the circumflex coronary artery and injecting a small bolus of microspheres to induce localised ischemia. […] As a control, mature liver-type IGF-I was used.

[1] = test system: rat organotypic hippocampal cultures; test: TBH oxidative stress in rat organotypic hippocampal cultures, PI-stained cell death; type: cell-based; details: for time for which the neuroprotective effect was observed: rat hippocampal slices after TBH challenge; for protection against TBH-induced cell death: rat hippocampal slices, 24 hours, peptide 10 ng/ml as printed
Experimental: Hippocampal slices were prepared from 7-10 days old Wistar rats according to the method of Stoppini et al (1991) with minor modifications according to Sarnowska (2002). Briefly, rats were anaesthetised with Vetbutal, ice-cooled and decapitated. Brains were quickly removed to ice-cold working solution pH 7.2: 96% of HBSS/HEPES-(Ca2^+ and Mg2^+ free) containing 2 mmol/L L-glutamine, 5 mg/ml glucose, 1% amphotericine B, 0.4% penicillin-streptomycin. Hippocampi were separated and cut into 400 μm slices using McIlwain tissue chopper. […] Four selected slices were settled on each membrane. Slices were cultivated for two weeks at 32° C. in 5% CO2 atmosphere of 100% humidity. The viability of the slices was checked daily under the light microscopy and evaluated additionally on the day of experiment by propidium iodide staining and observed under fluorescent microscope (Zeiss Axiovert 25) with MC-10095 camera (Carl Zeiss Jena GmbH) in order to record initial PI uptake (Sarnowska, 2002).
Oxidative stress was induced after 14 days in culture by adding 30 mM TBH ([…]) for 3 hours. After that time the slices were transferred to the fresh culture medium. Resulting cell death was assessed 24 and 48 h after the beginning of the experiment.
In order to investigate a pathway in which the MGF acts, a specific anti-IGF-1 receptor (AB-1) blocking antibody (Oncogene) was included in the medium 1 hour before the slices were exposed to TBH and MGF or IGF-1 peptide. The concentration of the antibody (1000 ng/ml) was used according to the manufacturer's recommendation.
To obtain detailed images of the slices, a confocal laser scanning microscope (Zeiss LSM 510) was used. A helium-neon laser (543 nm) was used for the excitation of propidium iodide (PI). […] Quantitative measurement of tissue deterioration was performed using image analyser KS 300 (Carl Zeiss Jena GmbH).
Cell damage was quantified on fluorescence images of PI-stained cultures 24 and 48 hours after TBH challenge. The relative extent of cell death was calculated from each standardized CA1 region as follows: % of dead cells=(experimental fluorescent intensity (FI)−background FI)/(maximal FI−background FI)×100, where maximal FI was obtained by killing all cells with exposure to 100 mM glutamate.
All the measurements were repeated for 5 independent culture preparations and 8 slices were used for each experimental condition. Statistical significance of the differences between the results was calculated using one-way Anova followed by Dunnet's test, (GraphPad Prism 3.02).
Rat brain slices were isolated following induction of localized damage by TBH (tert-butyl hydroperoxide) as discussed above. The resulting cell death in treated and non-treated brain slices was determined. […]

[2] = Stability to proteolytic cleavage in fresh human plasma, Western blotting; details: fresh human plasma plus PBS, 37° C., 24 hours
Experimental: Western blotting was then used to assess the survival of each peptide over those time intervals: A=0 minutes; B=30 minutes; C=2 hours; D=24 hours.
Stability may be assessed in terms of half-life in human plasma or by any other suitable technique. In particular, stability can be measured by assessing peptides' susceptibility to proteolytic cleavage in fresh human plasma according to the technique of Example 5.1 below, in which the plasma was stored until used at −70° C., 10 μg of peptide was added to 2 ml of plasma, plus 7 ml of PBS and the mixture was incubated at 37° C. for different time intervals. Western blotting was then used to detect each peptide over those time intervals.
The plasma was stored until used at −70° C. 10 μg of peptide were added to 2 ml of plasma, plus 7 ml of PBS. This mixture was incubated at 37° C. for different time intervals.
Like biological activity, stability was scored on a scale of 0 to 3.
Stability was determined as the amount of the peptide that remained intact and bound to the specific antibody in the following way:

[3] = test system: tibialis anterior muscle of non-dystrophic mice; test: Intramuscular injection into tibialis anterior of non-dystrophic mice, muscle strength; type: in vivo; details: i.m. twice weekly 25 μl containing 17 μg, within a few weeks
infarcted murine heart = test: Murine myocardial infarction (LAD ligation), pressure/volume loops; type: in vivo, mice; details: murine MI by LAD ligation; systemic administration
Experimental: All panels show pressure (mmHg) on the Y-axis and Relative Volume Units on the X-axis.
Additional experiments were carried out on mice. In these studies the MI was produced by ligating the left anterior descending (LAD) coronary artery of the murine heart. This causes dilation of the left ventricle, the progression of which leads to heart failure. […] Therefore there is considerable potential for treatment of patients immediately following a heart attack.

Substance	proliferation of C2C12 cells (Alamar Blue fluorescence) (C2C12 muscle cells)	CA1 neurones as % of the control neuronal cell number (side not stated) (CA1 hippocampal neurones) [%]	number of CA1 neurones left (side not stated) (CA1 hippocampal neurones) [neurones]	effect on percentage of viable myocardium and ejection fraction (infarcted ovine heart)	time for which the neuroprotective effect was observed [1]	protection against TBH-induced cell death [1] [%]	peptide detected by Western blotting after 24 hours [2]	increase in muscle strength [3]	strength and function of the heart by pressure/volume loops (infarcted murine heart)
IGF-I: IGF-I receptor binding domain encoded by Exons 3 and 4, common to all splice variants, approximately 70 amino acids [reference compound]	statistically different to the control value	15.8	19.2±7.3	much smaller effect	up to 24 hours	72			
stabilised peptide: SEQ ID NO: 15 with D-Arginine at positions 14 and 15, N-terminus attached to PEG (Jeffamine) via succinic acid bridge, amidated at C-terminus ({PEG (Jeffamine)-Suc}-YQPPSTNKNTKSQ[dR][dR]KGSTFEEHK-NH2; reading uncertain)				markedly increase the percentage of viable myocardium and the ejection fraction	≥ 48 h	85	detected in abundance	more than 25%	markedly improved the strength and function of the heart
